Experimental data published in patent US10357478B2, “Polyamide compound and pharmaceutical composition for treating mitochondrial genetic diseases” (Triplex Therapeutics Inc., priority 2011, dated 2019).

Assays:
[1] = tested on: wild-type dsDNA (normal (wild-type) mtDNA template, 21 bases containing the 3243rd base); assay: EMSA (electrophoretic mobility shift assay), binding to wild-type oligo-DNA; conditions: 10^−4 M polyamide, 1 hour at 37° C.
Method: (§1) In this Example, a binding specific to the base sequence was confirmed in vitro between the ML1 polyamide and the target. The assay was carried out in EMSA (electrophoretic mobility shift assay). The wild-type oligo-DNA with 21 bases containing the 3243rd base on which the A3243G mutation exists and the A3243G mutation oligo-DNA thereof were produced. A sense-stranded DNA with FITC bound at 5′-end and an antisense-stranded DNA were thermally denatured, slowly cooled, and annealed to obtain dsDNAs having the following sequence:
(§2) To dsDNA (50 pmol/10 μL), 40 μL of ddH2O was added and the whole was diluted to 1 pmol/μL. 4 pmol of the resulting dsDNA were mixed with the MLI polyamide solution so that the concentration became 10^−4M, and incubated for 1 hour at 37° C. Then, the sample was mixed with a loading buffer and applied on 20% non-denatured acrylamide gel (0.5×TBE) which was pre-run for 10 minutes at 350 V. An electrophoresis was carried out at 4′C and 100 V until BPB reached ¾ of the lower end of the gel, and a shift of the band was detected by LAS-3000 (Fuji Film).
(§3) The composition of the non-denatured acrylamide gel used in EMSA is shown as below: […]

[2] = tested on: A3243G mutant dsDNA (A3243G mutation mtDNA template); assay: EMSA (electrophoretic mobility shift assay), binding to A3243G mutation oligo-DNA; conditions: 10^−4 M polyamide, 1 hour at 37° C.
Method: as §1, §2, §3

[3] = tested on: 2SD cybrid cells (MELAS cybrid cells); assay: Replication of wild-type mtDNAs in MELAS cybrid cells (PCR-RFLP); assay type: cell-based; conditions: for increase level of wild-type mtDNAs in comparison with control: long-term (7, 15 or 35 days); for increase of wild-type mtDNAs: 35 days
Method: The MLI polyamide was given to the cultivated MELAS cybrid cells to confirm if the wild-type mtDNAs were positively reproduced in cells.
2SD cybrid cells were seeded on a 10 cm dish, and the MLI polyamide dissolved in 50% DMSO was added to the complete DMEM so that a final concentration thereof became 1 μM, 5 μM, or 10 μM. The medium to which the MLI polyamide was added was replaced every third day. In the control experiments, DMSO with the same diluted rate was added to the medium. The polyamide solution in 50% DMSO solution was diluted with ddH2O so that the concentration of DMSO in the medium became 0.1% or less, or 0.05% at a maximum.
Total DNAs were extracted from the cybrid cells treated by the MLI polyamide 14 days later, PCR-RFLP was then carried out, the bands were quantitatively analyzed by microchip electrophoresis (MCE-202 MultiNA; Shimadzu Corporation), and a mutation rate of the cybrid cells was analyzed.
Further, long-term effects were analyzed when the concentration of the MLI polyamide in the medium was 1 μM, 500 nM, or 100 nM. Total DNAs were extracted from the cybrid cells 7 days, 15 days, or 35 days later, PCR-RFLP was then carried out, electrophoresis was performed on 2% agarose gel (1×TAE), and an increase level of the wild-type mtDNAs was measured.

[4] = tested on: 143B cells; assay: Cytotoxicity in DMEM without sodium pyruvate and uridine, 143B cells; assay type: cell-based; conditions: 100 nM, 500 nM or 1 μM, 30 hours or 1 week
Method: (§4) 143B cells or HeLa cells were cultured in a medium prepared by adding 1 μM of ML1 polyamide to a 10% FBS-added DMEM (free of sodium pyruvate and uridine) wherein respiratory chain-defective cells are inviable. The synthesis of the respiratory chain proteins in mitochondria is essential to life-support, and only a slight dysfunction thereof results in cell death.
(§5) 143B cells or HeLa cells were cultured for a week in normal DMEM, complete DMEM (containing 0.1 mg/mL of sodium pyruvate, and 50 μg/mL of uridine), complete DMEM with the ML1 polyamide, or DMEM with the ML1 polyamide, and survival or death was observed.
(§6) In the culture of 143B cells, the MLI polyamide was added at the concentration of 100 nM, 500 nM, or 1 μM, whereas in the culture of Hela cells, the MLI polyamide was added at the concentration of 1 μM.

[5] = tested on: HeLa cells; assay: Cytotoxicity in DMEM without sodium pyruvate and uridine, HeLa cells; assay type: cell-based; conditions: 1 μM, 30 hours or 1 week
Method: as §4, §5, §6

[6] = 1 μM, 14 days, PCR-RFLP, microchip electrophoresis
[7] = 5 μM, 14 days, PCR-RFLP, microchip electrophoresis

With `CC(=O)Nc1cc(C(=O)Nc2cc(C(=O)Nc3cc(C(=O)NCCC(=O)Nc4cn(C)c(C(=O)Nc5cc(C(=O)Nc6cc(C(=O)NCCCC(=O)Nc7cn(C)c(C(=O)Nc8cn(C)c(C(=O)Nc9cc(C(=O)NCCC(=O)Nc%10cn(C)c(C(=O)Nc%11cc(C(=O)Nc%12cn(C)c(C(=O)NCCC(=O)NCCCN(C)C)n%12)n(C)c%11)n%10)n(C)c9)n8)n7)n(C)c6)n(C)c5)n4)n(C)c3)n(C)c2)n(C)c1` [ML1 polyamide, Ac-Py-Py-Py-β-Im-Py-Py-γ-Im-Im-Py-β-Im-Py-Im-β-Dp] the “shift of the band of wild-type dsDNA in EMSA” value [1] was “significantly shifted”, the “shift of the band of wild-type dsDNA in EMSA” value ([1]; listed as MLI polyamide) was “clear shift of the band” and the “shift of the band of A3243G mutant dsDNA in EMSA” value [2] was “no significant shift”. For the same compound, the “shift of the band of A3243G mutant dsDNA in EMSA” value ([2]; listed as MLI polyamide) was “not clearly observed”, the “increase level of wild-type mtDNAs in comparison with control” value (shortened to “increase level of wild-type mtDNAs”) ([3]; 100 nM, PCR-RFLP, agarose gel) was “grossly visible increase level” and the “increase level of wild-type mtDNA” value ([3]; 500 nM, 15 days, agarose gel) was “significant increase level”. For the same compound, the “increase of wild-type mtDNAs” value ([3]; 500 nM, agarose gel) was “continuous increase level”, the “increase of wild-type mtDNAs” value ([3]; 500 nM, agarose gel, listed as MLI polyamide) was “continuous increase” and the “increase level of wild-type mtDNAs” value ([3]; 500 nM, PCR-RFLP, agarose gel) was “grossly visible increase level”. For the same compound, the “increase level of wild-type mtDNA” value [3, 6] was “increase levels of wild-type mtDNA”, the “mutation rate of the cybrid cells” value [3, 6] was “decrease of the mutation rate” and the “increase level of wild-type mtDNA” value ([3]; 1 μM, 14 days, PCR-RFLP, microchip electrophoresis, listed as MLI polyamide) was “concentration-dependent increase level”. The “increase level of wild-type mtDNAs” value ([3]; 1 μM, PCR-RFLP, agarose gel) was “grossly visible increase level”, the “increase level of wild-type mtDNA” value [3, 7] was “increase levels of wild-type mtDNA” and the “mutation rate of the cybrid cells” value [3, 7] was “decrease of the mutation rate”. For the same compound, the “increase level of wild-type mtDNA” value ([3]; 5 μM, 14 days, PCR-RFLP, microchip electrophoresis, listed as MLI polyamide) was “concentration-dependent increase level”, the “morphological changes or cell cytotoxicity” value [4] was “did not show any morphological changes or cell cytotoxicity” and the “morphological changes or cell cytotoxicity” value [5] was “did not show any morphological changes or cell cytotoxicity”.
